Results as given in ChEMBL document CHEMBL3286286, “2-(2-Arylphenyl)benzoxazole As a Novel Anti-Inflammatory Scaffold: Synthesis and Biological Evaluation” (ACS Med Chem Lett, 2014).

How the values were obtained:
[1] = molecular target: T1, Prostaglandin G/H synthase 1 (Ovis aries) (UniProt P05979); assay: Inhibition of ovine COX1 using arachidonic acid as substrate at 10 uM
T1 sequence (whole entry): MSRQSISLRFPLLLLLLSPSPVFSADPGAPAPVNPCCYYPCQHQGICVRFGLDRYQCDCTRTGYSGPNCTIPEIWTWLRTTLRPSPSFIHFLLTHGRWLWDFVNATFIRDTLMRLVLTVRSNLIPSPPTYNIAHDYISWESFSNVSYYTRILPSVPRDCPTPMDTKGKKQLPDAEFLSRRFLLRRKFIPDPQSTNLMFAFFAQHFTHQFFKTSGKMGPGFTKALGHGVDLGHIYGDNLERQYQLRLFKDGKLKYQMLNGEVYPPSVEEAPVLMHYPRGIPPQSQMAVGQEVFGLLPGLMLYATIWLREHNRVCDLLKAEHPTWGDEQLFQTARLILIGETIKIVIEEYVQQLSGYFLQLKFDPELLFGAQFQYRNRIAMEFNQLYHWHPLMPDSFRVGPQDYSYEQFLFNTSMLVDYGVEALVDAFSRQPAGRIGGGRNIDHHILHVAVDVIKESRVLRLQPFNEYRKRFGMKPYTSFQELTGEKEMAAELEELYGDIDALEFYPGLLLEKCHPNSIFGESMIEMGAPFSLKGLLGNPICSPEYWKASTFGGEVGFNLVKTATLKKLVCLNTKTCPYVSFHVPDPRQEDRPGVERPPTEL

[2] = Selectivity for human recombinant COX2 to ovine COX1
[3] = molecular target: T2, Prostaglandin G/H synthase 2 (Homo sapiens) (UniProt P35354); details: at 10 µM
T2 sequence (whole entry): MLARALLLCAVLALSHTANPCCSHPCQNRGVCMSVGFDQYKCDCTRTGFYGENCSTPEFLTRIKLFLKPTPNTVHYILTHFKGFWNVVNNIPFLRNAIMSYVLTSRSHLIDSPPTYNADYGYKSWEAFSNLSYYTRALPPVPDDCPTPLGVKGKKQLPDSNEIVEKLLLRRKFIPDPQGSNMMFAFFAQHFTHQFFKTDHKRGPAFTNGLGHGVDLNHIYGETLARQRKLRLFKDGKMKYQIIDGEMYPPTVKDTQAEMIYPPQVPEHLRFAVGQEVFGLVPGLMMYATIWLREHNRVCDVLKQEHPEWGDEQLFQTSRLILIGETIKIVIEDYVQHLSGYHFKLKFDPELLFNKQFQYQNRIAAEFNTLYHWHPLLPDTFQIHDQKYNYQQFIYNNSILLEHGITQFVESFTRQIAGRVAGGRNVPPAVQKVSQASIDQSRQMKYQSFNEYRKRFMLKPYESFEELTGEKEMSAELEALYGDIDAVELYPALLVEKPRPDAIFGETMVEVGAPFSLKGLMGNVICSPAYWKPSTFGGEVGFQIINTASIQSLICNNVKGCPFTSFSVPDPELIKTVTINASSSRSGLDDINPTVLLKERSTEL
Description: Inhibition of human recombinant COX2 using arachidonic acid as substrate at 10 uM

[4] = Selectivity index, ratio of IC50 for ovine COX1 to IC50 for human recombinant COX2
Rattus norvegicus [5] = assay: Antiinflammatory activity in Wistar albino rat assessed as reduction in carrageenan-induced hind paw volume at 12.5 mg/kg, ip administered 10 mins after carrageenan-challenge measured up to 3 hrs; format: functional; details: route intraperitoneal
Rattus norvegicus [6] = assay: Antiinflammatory activity in Wistar albino rat assessed as reduction in carrageenan-induced hind paw volume at 25 mg/kg, ip administered 10 mins after carrageenan-challenge measured up to 3 hrs; format: functional; details: route intraperitoneal
[7] = molecular target: T3, Prostaglandin G/H synthase 1 (Ovis aries, UniProt P05979); assay: Inhibition of ovine COX1 using arachidonic acid as substrate
T3 sequence (P05979 whole entry): T1 sequence (whole entry)

[8] = molecular target: T4, Prostaglandin G/H synthase 2 (Homo sapiens, UniProt P35354); assay: Inhibition of human recombinant COX2 using arachidonic acid as substrate
T4 sequence (P35354 whole entry): T2 sequence (whole entry)

Row | SMILES | inhibition [1] [%] | Selectivity ratio [2] | inhibition [3] [%] | Ratio IC50 [4] | IC50 [7] [µM] | IC50 [8] [µM] | inhibition in vivo at 12.5 mg/kg (Rattus norvegicus [5]) [%] | inhibition in vivo at 25 mg/kg (Rattus norvegicus [6]) [%]
1 | COc1ccc(-c2ccccc2-c2nc3ccccc3o2)cc1 | 19.1 | 0.78 | 14.8 |  |  |  |  | 
2 | Clc1cc(-c2ccccc2-c2nc3ccccc3o2)ccc1OCc1ccccc1 | 10.3 | 1.65 | 17 |  |  |  |  | 
3 | CS(=O)(=O)c1ccc(-c2ccccc2-c2nc3ccccc3o2)cc1 | 10.8 | 6.96 | 75.1 | 33.6 | 45.1 | 1.34 | 62.5 | 75
4 | O=C(O)Cc1ccccc1Nc1c(Cl)cccc1Cl [DICLOFENAC] |  |  |  |  |  |  | 67.3 | 84.6
5 | FC(F)(F)c1ccc(-c2ccccc2-c2nc3ccccc3o2)cc1 | 3.45 | 3.38 | 11.7 |  |  |  |  | 
6 | CSc1ccc(-c2ccccc2-c2nc3ccccc3o2)cc1 | 4.07 | 10.7 | 43.5 |  |  |  |  | 
7 | Cc1ccc(-c2cc(C(F)(F)F)nn2-c2ccc(S(N)(=O)=O)cc2)cc1 [CELECOXIB] |  |  |  |  |  |  | 60.6 | 74.6
8 | COc1ccc(-c2ccccc2-c2nc3ccccc3o2)cc1OC1CCCC1 | 17.1 | 0.87 | 14.8 |  |  |  |  | 
9 | c1ccc(-c2ccccc2-c2nc3ccccc3o2)cc1 | 24 | 0.44 | 10.6 |  |  |  |  | 
10 | COc1cccc(-c2ccccc2-c2nc3ccccc3o2)c1OC | 74.9 | 0.8 | 59.9 |  |  |  |  | 

More lines, main results first:

Row | inhibition [1] [%] | Selectivity ratio [2] | inhibition [3] [%] | Ratio IC50 [4] | IC50 [7] [µM] | IC50 [8] [µM] | SMILES | inhibition in vivo at 12.5 mg/kg (Rattus norvegicus [5]) [%] | inhibition in vivo at 25 mg/kg (Rattus norvegicus [6]) [%]
11 | 1.65 | 1.57 | 8.46 |  |  |  | Fc1ccc(-c2ccccc2-c2nc3ccccc3o2)cc1 |  | 
12 | 2.19 | 15.5 | 33.9 |  |  |  | CC(C)Oc1ccc(-c2ccccc2-c2nc3ccccc3o2)cc1Cl |  | 
13 | 7.56 | 12.6 | 94.9 | 113 | 46.2 | 0.41 | Oc1ccc(-c2ccccc2-c2nc3ccccc3o2)cc1Cl | 68.3 | 82.7
14 | 58.2 | 1.49 | 86.6 |  |  |  | COc1ccc(-c2ccccc2-c2nc3ccccc3o2)cc1OC |  | 
15 | 8.46 | 4.83 | 40.9 |  |  |  | N#Cc1ccc(-c2ccccc2-c2nc3ccccc3o2)cc1 |  | 
16 | 6.45 | 12.6 | 81.4 | 69.8 | 46.8 | 0.67 | COc1ccc(-c2ccccc2-c2nc3ccccc3o2)cc1Cl | 53.9 | 64.4
17 | 6.58 | 8.81 | 58 |  |  |  | O=Cc1ccc(-c2ccccc2-c2nc3ccccc3o2)cc1 |  | 
